Results from ChEMBL document CHEMBL1201862, “PubChem BioAssay data set” (2004).
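Each compound was tested at five concentrations against cells in 96-well plates for 48 hours. Here, GI50 denotes the concentration required for 50% inhibition of growth.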 Calls of active or inactive are those of the source. Rule as the data show it: active = GI50 up to about 1.1 µM and inactive = higher.

How the values were obtained:
Test in all cases: NCI-60 cell line screen, 48 h
[1] = test system: OVCAR-8
[2] = test system: U-251
[3] = test system: SK-MEL-28
[4] = test system: SW-620
[5] = test system: HOP-92
[6] = test system: SN12C
[7] = test system: SK-MEL-2
[8] = test system: TK-10
[9] = test system: NCI-H226
[10] = test system: M19-MEL
[11] = test system: SF-268
[12] = test system: HCC 2998
[13] = test system: OVCAR-5
[14] = test system: SF-539
[15] = test system: SR

| SMILES | GI50 [1] | GI50 [2] | GI50 [3] | GI50 [4] | GI50 [5] | GI50 [6] | GI50 [7] | GI50 [8] | GI50 [9] | GI50 [10] | GI50 [11] | GI50 [12] | GI50 [13] | GI50 [14] | GI50 [15] |
| --- | --- | --- | --- | --- | --- | --- | --- | --- | --- | --- | --- | --- | --- | --- | --- |
| NC1=NS(=O)(=O)N=C(N)C1=Cc1ccc([N+](=O)[O-])o1 | 17.3 µM (inactive) | 50.8 µM (inactive) | 16 µM (inactive) | 18.3 µM (inactive) | 13.8 µM (inactive) | 16.5 µM (inactive) | 16.1 µM (inactive) | 18.6 µM (inactive) | 30.8 µM (inactive) | 16.5 µM (inactive) | 17.5 µM (inactive) | 22.1 µM (inactive) | 18.9 µM (inactive) | 18.3 µM (inactive) | 3.73 µM (inactive) |
| O=C(NCO)NCOCn1c(=O)n(CO)c(=O)n(CO)c1=O | 32.9 µM (inactive) | > 60.8 µM (inactive) | 22.1 µM (inactive) | 21.3 µM (inactive) |  | > 60.7 µM (inactive) | 17.9 µM (inactive) | > 100 µM (inactive) | > 100 µM (inactive) | 32.4 µM (inactive) | 31.3 µM (inactive) | > 100 µM (inactive) | > 100 µM (inactive) | > 100 µM (inactive) | 29.2 µM (inactive) |
| NCCSc1cc(O)c2c(c1N)C(=O)c1ccccc1C2=O | 27.9 µM (inactive) | 58.7 µM (inactive) | > 100 µM (inactive) | 33.1 µM (inactive) | 60.5 µM (inactive) | 47.1 µM (inactive) | 65.6 µM (inactive) | > 100 µM (inactive) |  | 24.3 µM (inactive) | 55.8 µM (inactive) | > 100 µM (inactive) | > 100 µM (inactive) | 92.5 µM (inactive) | 20.8 µM (inactive) |
| N#[N+][c-]1c(-c2ccccc2)n[nH]c1=O | > 100 µM (inactive) | > 100 µM (inactive) | > 100 µM (inactive) | > 100 µM (inactive) | > 100 µM (inactive) | > 100 µM (inactive) | > 100 µM (inactive) | > 100 µM (inactive) | > 100 µM (inactive) | > 100 µM (inactive) | > 100 µM (inactive) | > 100 µM (inactive) | > 100 µM (inactive) | > 100 µM (inactive) | > 100 µM (inactive) |
| COc1ccc(/C=C/C(=O)c2sc(-c3cccnc3)nc2C)cc1 | 35.7 µM (inactive) | 58.3 µM (inactive) | 94 µM (inactive) | 32.8 µM (inactive) | 81.5 µM (inactive) | 64.6 µM (inactive) | 38.4 µM (inactive) | 38.6 µM (inactive) | 23.8 µM (inactive) | 67.9 µM (inactive) | 74.6 µM (inactive) | 37.5 µM (inactive) | > 100 µM (inactive) | 21.1 µM (inactive) |  |
| O=c1[nH]c(S)nc2c1sc(=S)n2-c1ccccc1 | > 100 µM (inactive) | > 100 µM (inactive) | > 100 µM (inactive) | > 100 µM (inactive) | 55.3 µM (inactive) | > 100 µM (inactive) | > 100 µM (inactive) | > 100 µM (inactive) | > 100 µM (inactive) | > 100 µM (inactive) | > 100 µM (inactive) | > 100 µM (inactive) | > 100 µM (inactive) | > 100 µM (inactive) | > 100 µM (inactive) |
| CC12CC/C(=N/NC(N)=O)C3C1CCCC32 | > 100 µM (inactive) | > 100 µM (inactive) | > 100 µM (inactive) | > 100 µM (inactive) | > 100 µM (inactive) | > 100 µM (inactive) | > 100 µM (inactive) | > 100 µM (inactive) | > 100 µM (inactive) | > 100 µM (inactive) | > 100 µM (inactive) | > 100 µM (inactive) |  | > 100 µM (inactive) | > 100 µM (inactive) |
| COC(=O)/C(C#N)=C1\CCC(OC)N1C (stereo not given) | > 100 µM (inactive) | > 100 µM (inactive) | > 100 µM (inactive) | > 100 µM (inactive) |  | > 100 µM (inactive) | > 100 µM (inactive) | > 100 µM (inactive) | > 100 µM (inactive) | > 100 µM (inactive) | > 100 µM (inactive) | > 100 µM (inactive) | > 100 µM (inactive) | > 100 µM (inactive) |  |
| Cc1cc2nc(O)c(CCC(=O)O)nc2cc1C | > 100 µM (inactive) | > 100 µM (inactive) | > 100 µM (inactive) |  | > 100 µM (inactive) | > 100 µM (inactive) | > 100 µM (inactive) | > 100 µM (inactive) | > 100 µM (inactive) | > 100 µM (inactive) | > 100 µM (inactive) | > 100 µM (inactive) | > 100 µM (inactive) | > 100 µM (inactive) | 43.4 µM (inactive) |
| O=C1C(c2ccccc2)=[N+]([O-])c2ccc(Cl)cc21 | 15 µM (inactive) | 25.9 µM (inactive) | 20 µM (inactive) | 49.2 µM (inactive) | 0.0256 µM (active) | 24.2 µM (inactive) | > 100 µM (inactive) | 29.2 µM (inactive) | 14.7 µM (inactive) | 20.1 µM (inactive) | 22.4 µM (inactive) |  | 35.2 µM (inactive) | 20.2 µM (inactive) | 34.7 µM (inactive) |
| COc1ccc([C@H]2CC3C(=O)N(c4ccc(OC)cc4)C(=O)C3c3[nH]c4ccccc4c32)cc1 (stereo not given in full) | 17.1 µM (inactive) | 59.6 µM (inactive) | 83.9 µM (inactive) | 45.6 µM (inactive) | 24 µM (inactive) | 51.9 µM (inactive) | 53 µM (inactive) | > 100 µM (inactive) | 91 µM (inactive) | 71.4 µM (inactive) | 82 µM (inactive) | > 100 µM (inactive) | > 100 µM (inactive) | 20.7 µM (inactive) |  |
| CC(C)c1ccccc1NC(=O)CCC(=O)NN |  | > 100 µM (inactive) | > 100 µM (inactive) | > 100 µM (inactive) | > 100 µM (inactive) | > 100 µM (inactive) | > 100 µM (inactive) | > 100 µM (inactive) | > 100 µM (inactive) | > 100 µM (inactive) | > 100 µM (inactive) |  |  | > 100 µM (inactive) | > 100 µM (inactive) |
| COc1ccc(-c2cc(-c3cc(Cl)cc(Br)c3O)nc(O)n2)cc1 | 16.7 µM (inactive) | 17 µM (inactive) | 19.9 µM (inactive) | 20.7 µM (inactive) | 17.8 µM (inactive) | 15.5 µM (inactive) |  | 26.2 µM (inactive) | 17.5 µM (inactive) | 19.7 µM (inactive) | 16.3 µM (inactive) | 19.9 µM (inactive) |  | 14.7 µM (inactive) | 18 µM (inactive) |
| CCSc1nnc(-c2ccccc2)nc1Cc1ccc(OC)cc1 | > 100 µM (inactive) | 79.6 µM (inactive) | > 100 µM (inactive) | > 100 µM (inactive) | > 100 µM (inactive) | > 100 µM (inactive) | 87.1 µM (inactive) | > 100 µM (inactive) | > 100 µM (inactive) | > 100 µM (inactive) | > 100 µM (inactive) | > 100 µM (inactive) |  | > 100 µM (inactive) | 42.8 µM (inactive) |
| Cc1ccccc1/C=C/c1csnn1 | > 100 µM (inactive) | > 100 µM (inactive) | > 100 µM (inactive) | > 56.4 µM (inactive) | > 100 µM (inactive) | > 100 µM (inactive) | > 100 µM (inactive) | > 100 µM (inactive) | > 100 µM (inactive) | > 80.5 µM (inactive) | > 46.2 µM (inactive) | > 100 µM (inactive) | > 100 µM (inactive) | > 100 µM (inactive) | > 100 µM (inactive) |
| CSc1sc(=S)sc1C(=O)N(C)c1ccccc1 | > 100 µM (inactive) | > 100 µM (inactive) | > 100 µM (inactive) | > 100 µM (inactive) |  | > 100 µM (inactive) | > 100 µM (inactive) | > 100 µM (inactive) | > 100 µM (inactive) | > 100 µM (inactive) | > 100 µM (inactive) |  | > 100 µM (inactive) | > 100 µM (inactive) | 83 µM (inactive) |
| CSC(=O)C[C@@]12O[C@@H]([C@@H](C)C3CCC4[C@@H]5C(O)CC6=CC(=O)C=C[C@]6(C)C5CC[C@@]43C)C[C@](C)(O1)C(C)(C)O2 (stereo not given in full) | 17.8 µM (inactive) | 12.5 µM (inactive) | 17.9 µM (inactive) | 17.3 µM (inactive) | 9.86 µM (inactive) | 16.6 µM (inactive) | 22.9 µM (inactive) | 17.8 µM (inactive) | 22.3 µM (inactive) | 1.43 µM (inactive) | 16.4 µM (inactive) | 26.2 µM (inactive) | 17.7 µM (inactive) | 16.3 µM (inactive) | 9.95 µM (inactive) |
| CC(=O)O[C@@H]1CC(C)C2CC2C2=C(C(O)OC2O)[C@@H]1C(C)CCC=C(C)C (stereo not given in full) | 27 µM (inactive) | 19.4 µM (inactive) | 36.7 µM (inactive) | 23 µM (inactive) | 12.8 µM (inactive) | 18.4 µM (inactive) | 29.9 µM (inactive) | 33.3 µM (inactive) | 20.1 µM (inactive) | 22.8 µM (inactive) | 25.8 µM (inactive) | 20.8 µM (inactive) | 18.3 µM (inactive) | 18.9 µM (inactive) |  |
| COC(=O)C1=Cc2cc(OC)c(OC)c(OC)c2[C@H](c2cc(OC)c(OC)c(OC)c2)C1C(=O)OC (stereo not given in full) | > 100 µM (inactive) | > 100 µM (inactive) | > 100 µM (inactive) | > 100 µM (inactive) | 1.73 µM (inactive) | > 100 µM (inactive) |  | > 100 µM (inactive) | > 100 µM (inactive) | > 100 µM (inactive) | > 100 µM (inactive) | > 100 µM (inactive) | > 100 µM (inactive) | > 100 µM (inactive) |  |
